Laboratory results as given in BindingDB's records for doi:10.7270/Q2251GJ9 (The Scripps Research Institute Molecular Screening Center, 2007).
pEC50: −log10 of the molar value.

Molecular target: Sphingosine 1-phosphate receptor 1 (Homo sapiens, UniProt P21453)
Assay: S1P1 receptor agonists, dose response, cell-based, agonist mode, 60K MLSMR set (AID 468)
Conditions: not given

Sphingosine 1-phosphate receptor 1, sequence (P21453 whole entry): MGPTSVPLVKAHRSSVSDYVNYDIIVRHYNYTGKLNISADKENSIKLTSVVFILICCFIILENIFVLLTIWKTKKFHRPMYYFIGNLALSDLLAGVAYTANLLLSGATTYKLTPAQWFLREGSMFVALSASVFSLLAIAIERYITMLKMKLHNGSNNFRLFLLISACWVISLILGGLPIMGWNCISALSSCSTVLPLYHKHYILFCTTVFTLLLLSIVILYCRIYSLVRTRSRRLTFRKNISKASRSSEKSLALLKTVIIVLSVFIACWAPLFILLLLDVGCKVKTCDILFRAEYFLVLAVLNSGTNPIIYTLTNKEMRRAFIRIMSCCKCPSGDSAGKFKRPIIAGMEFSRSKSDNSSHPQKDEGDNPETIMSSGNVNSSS

Row | Compound | pEC50
1 | Cc1ccc(S(=O)(=O)Nc2ccc3ncccc3c2)cc1 [4-methyl-N-(6-quinolinyl)benzenesulfonamide] | 5.11
2 | Cc1sc2ncnc(Sc3nnnn3-c3ccccc3)c2c1C [5,6-dimethyl-4-(1-phenyltetrazol-5-yl)sulfanylthieno[2,3-d]pyrimidine] | < 4.02
3 | c1ccc(C(Cc2nc(-c3cccnc3)no2)c2ccccc2)cc1 [5-(2,2-diphenylethyl)-3-(3-pyridinyl)-1,2,4-oxadiazole] | 5.55
4 | COc1ccc(-c2noc(-c3cccc(OC)c3OC)n2)cc1OC [5-(2,3-dimethoxyphenyl)-3-(3,4-dimethoxyphenyl)-1,2,4-oxadiazole] | 5.84
5 | COc1ccc(-c2noc(-c3ccccc3F)n2)cc1 [5-(2-fluorophenyl)-3-(4-methoxyphenyl)-1,2,4-oxadiazole] | 5.13
6 | O=C(Nc1ccc(O)cc1)c1cc2n(n1)C(C(F)(F)F)CC(c1ccco1)N2 (configuration not stated) [5-(2-furanyl)-N-(4-hydroxyphenyl)-7-(trifluoromethyl)-1,5,6,7-tetrahydropyrazolo[1,5-a]pyrimidine-2-carboxamide] | 5.44
7 | COc1ccccc1-c1nc(-c2cccc(C)c2)no1 [5-(2-methoxyphenyl)-3-(3-methylphenyl)-1,2,4-oxadiazole] | 5.87
8 | COc1ccccc1-c1cc(C(=O)Nc2ccccc2SC)no1 [5-(2-methoxyphenyl)-N-(2-methylsulfanylphenyl)-1,2-oxazole-3-carboxamide] | 5.20
9 | CCOc1ccc(-c2nc(-c3ccc(OC)cc3)no2)cc1OCC [5-(3,4-Diethoxy-phenyl)-3-(4-methoxy-phenyl)-[1,2,4]oxadiazole] | 6.25
10 | CCOc1ccc(-c2nc(-c3ccccc3)no2)cc1OCC [5-(3,4-diethoxyphenyl)-3-phenyl-1,2,4-oxadiazole] | 6.83
11 | COc1ccc(-c2nc(-c3ccccc3OC)no2)cc1OC [5-(3,4-dimethoxyphenyl)-3-(2-methoxyphenyl)-1,2,4-oxadiazole] | 6.78
12 | COc1ccc(-c2nc(-c3cccc(C)c3)no2)cc1OC [5-(3,4-dimethoxyphenyl)-3-(3-methylphenyl)-1,2,4-oxadiazole] | 5.83
13 | COc1ccc(-c2nc(-c3ccncc3)no2)cc1OC [5-(3,4-dimethoxyphenyl)-3-(4-pyridyl)-1,2,4-oxadiazole] | 5.73
14 | COc1ccccc1OCc1nc(C#N)c(N2CC(C)CC(C)C2)o1 (configuration not stated) [5-(3,5-dimethyl-1-piperidinyl)-2-[(2-methoxyphenoxy)methyl]-4-oxazolecarbonitrile] | 5.40
15 | Cc1cc(C)cc(-c2nc(-c3ccncc3)no2)c1 [5-(3,5-dimethylphenyl)-3-(4-pyridyl)-1,2,4-oxadiazole] | 5.69
16 | CCOc1ccc(C2CC(c3cccc(OC)c3OC)n3nnnc3N2)cc1Cl (configuration not stated) [5-(3-chloranyl-4-ethoxy-phenyl)-7-(2,3-dimethoxyphenyl)-1,5,6,7-tetrahydro-[1,2,3,4]tetrazolo[1,5-a]pyrimidine] | < 4.02
17 | CC(C)N1C(=O)CCC1C(=O)N1CCC(Cc2ccccc2)CC1 (configuration not stated) [5-(4-benzylpiperidine-1-carbonyl)-1-isopropyl-2-pyrrolidone] | < 4.02
18 | COc1ccccc1-n1nnnc1S(=O)(=O)Cc1ccc(Cl)cc1 [5-(4-chlorobenzyl)sulfonyl-1-(2-methoxyphenyl)tetrazole] | 5.44
19 | CCc1ccc(-c2nc(-c3ccncc3)no2)cc1 [5-(4-ethylphenyl)-3-(4-pyridyl)-1,2,4-oxadiazole] | 5.24

Row | Compound | pEC50
20 | O=C(Nc1ccccc1C(F)(F)F)c1cc(-c2ccc(O)cc2)on1 [5-(4-hydroxyphenyl)-N-[2-(trifluoromethyl)phenyl]isoxazole-3-carboxamide] | 6.02
21 | c1ccc(-c2ccc(-c3nc(-c4cccnc4)no3)cc2)cc1 [5-(4-phenylphenyl)-3-(3-pyridinyl)-1,2,4-oxadiazole] | 5.63
22 | O=C(Nc1nc2c(s1)CCCC2)c1cc2n(n1)C(C(F)(F)F)CC(C1CC1)N2 (configuration not stated) [5-Cyclopropyl-7-trifluoromethyl-4,5,6,7-tetrahydro-pyrazolo[1,5-a]pyrimidine-2-carboxylic acid (4,5,6,7-tetrahydro-benzothiazol-2-yl)-amide] | 6.00
23 | CC(C)c1cc(C(F)(F)F)n2nc(C(=O)Nc3ccc4c(c3)OCO4)cc2n1 [5-Isopropyl-7-trifluoromethyl-pyrazolo[1,5-a]pyrimidine-2-carboxylic acid benzo[1,3]dioxol-5-ylamide] | 5.59
24 | Cc1cc(N2CCN(C/C=C/c3ccccc3)CC2)n2ncnc2n1 [5-Methyl-7-[4-((E)-3-phenyl-allyl)-piperazin-1-yl]-[1,2,4]triazolo[1,5-a]pyrimidine] | < 4.52
25 | CCC(NCCOc1ccc(Cl)cc1)=C1C(=O)N(C)C(=O)N(C)C1=O [5-[1-[2-(4-chlorophenoxy)ethylamino]propylidene]-1,3-dimethyl-1,3-diazinane-2,4,6-trione] | 5.30
26 | Cc1ccc(OCc2nc(-c3ccccc3)no2)c(C)c1 [5-[(2,4-dimethylphenoxy)methyl]-3-phenyl-1,2,4-oxadiazole] | 5.58
27 | Clc1ccc(OCc2nc(-c3ccncc3)no2)c(Br)c1 [5-[(2-bromanyl-4-chloranyl-phenoxy)methyl]-3-pyridin-4-yl-1,2,4-oxadiazole] | 5.41
28 | CC(C)c1ccc(OCc2nc(-c3ccccn3)no2)c(Br)c1 [5-[(2-bromanyl-4-propan-2-yl-phenoxy)methyl]-3-pyridin-2-yl-1,2,4-oxadiazole] | 5.35
29 | COC(=O)c1cc(NCc2ccccc2F)ccc1N1CCOCC1 [5-[(2-fluorobenzyl)amino]-2-morpholino-benzoic acid methyl ester] | 5.05
30 | COc1ccccc1-n1nnnc1SCc1cc2c(cc1Br)OCO2 [5-[(6-bromanyl-1,3-benzodioxol-5-yl)methylsulfanyl]-1-(2-methoxyphenyl)-1,2,3,4-tetrazole] | < 5.00
31 | COC(=O)c1cc(CSc2nnc(-c3ccccc3)c(-c3ccccc3)n2)oc1C [5-[[(5,6-diphenyl-1,2,4-triazin-3-yl)thio]methyl]-2-methyl-3-furancarboxylic acid methyl ester] | 5.76
32 | O=C(Nc1ccc(N2CCCC2)c(Cl)c1)c1ccc(Br)o1 [5-bromanyl-N-(3-chloranyl-4-pyrrolidin-1-yl-phenyl)furan-2-carboxamide] | 5.38
33 | O=S(=O)(NCc1ccncc1)c1ccc(Br)s1 [5-bromanyl-N-(pyridin-4-ylmethyl)thiophene-2-sulfonamide] | 5.58
34 | CCc1ccc(S(=O)(=O)NCCc2csc(-c3ccccc3)n2)s1 [5-ethyl-N-[2-(2-phenyl-1,3-thiazol-4-yl)ethyl]thiophene-2-sulfonamide] | 5.06
35 | COC(=O)c1c(C)n(-c2ccc(OC)cc2)c2ccc(O)cc12 [5-hydroxy-1-(4-methoxyphenyl)-2-methyl-3-indolecarboxylic acid methyl ester] | 5.20
36 | Cc1ccc(S(=O)(=O)Nc2cccc3ncccc23)s1 [5-methyl-N-quinolin-5-ylthiophene-2-sulfonamide] | 5.02
37 | Cn1nc(C(C)(C)C)cc1C(=O)NCc1ccc(N2CCCC2=O)cc1 [5-tert-Butyl-2-methyl-2H-pyrazole-3-carboxylic acid 4-(2-oxo-pyrrolidin-1-yl)-benzylamide] | 5.41

Same assay, conditions: inactive by the depositor's call

Row | Compound | pEC50
38 | CCN(CC)S(=O)(=O)c1cc(C(=O)Nc2ccncc2)ccc1Cl [4-chloranyl-3-(diethylsulfamoyl)-N-pyridin-4-yl-benzamide] | 4.28
39 | Cc1cc(N2CCOCC2)nc(NCc2ccccc2)n1 [4-methyl-6-(4-morpholinyl)-N-(phenylmethyl)-2-pyrimidinamine] | 4.88
40 | Cc1nc2ncnn2c(N2CCN(c3cccc(C(F)(F)F)c3)CC2)c1C [5,6-Dimethyl-7-[4-(3-trifluoromethyl-phenyl)-piperazin-1-yl]-[1,2,4]triazolo[1,5-a]pyrimidine] | 4.85
41 | COc1ccccc1-c1cc(C(=O)Nc2cc(C)nn2-c2ccccc2)no1 [5-(2-methoxyphenyl)-N-(3-methyl-1-phenyl-1H-pyrazol-5-yl)isoxazole-3-carboxamide] | 4.33
42 | COc1ccc(-c2nc(-c3cccc(C(F)(F)F)c3)no2)cc1OC [5-(3,4-dimethoxyphenyl)-3-[3-(trifluoromethyl)phenyl]-1,2,4-oxadiazole] | 4.65
43 | COc1cccc(-c2cc(C(=O)Nc3ccccc3SC)no2)c1 [5-(3-methoxyphenyl)-N-(2-methylsulfanylphenyl)-1,2-oxazole-3-carboxamide] | 4.74
44 | c1ccc(-c2ccc(-c3nc(-c4ccncc4)no3)cc2)cc1 [5-(4-phenylphenyl)-3-(4-pyridyl)-1,2,4-oxadiazole] | 4.98
45 | Cc1cccc(-c2nc(C#N)c(NC3CCCCC3)o2)c1 [5-(cyclohexylamino)-2-(3-methylphenyl)-1,3-oxazole-4-carbonitrile] | 4.87
46 | FC(F)(F)c1ccc(N2CCN(c3cc(-c4ccccc4)nc4ncnn34)CC2)nc1 [5-Phenyl-7-[4-(5-trifluoromethyl-pyridin-2-yl)-piperazin-1-yl]-[1,2,4]triazolo[1,5-a]pyrimidine] | 4.50
47 | CCOC(=O)c1oc2ccc(S(=O)(=O)n3nc(-c4ccc(OC)cc4)cc3N)cc2c1C [5-[5-amino-3-(4-methoxyphenyl)pyrazol-1-yl]sulfonyl-3-methyl-coumarilic acid ethyl ester] | 4.52
48 | Oc1c(C(c2ccco2)N2CCN(C(c3ccccc3)c3ccccc3)CC2)sc2ncnn12 (configuration not stated) [5-[(4-benzhydrylpiperazin-1-yl)-(furan-2-yl)methyl]-[1,3]thiazolo[3,2-b][1,2,4]triazol-6-ol] | 4.80
49 | COC(=O)c1ccc(CSc2nc3ccccc3c(=O)n2Cc2ccco2)o1 [5-[[[3-(2-furanylmethyl)-4-oxo-2-quinazolinyl]thio]methyl]-2-furancarboxylic acid methyl ester] | 4.72
50 | Cc1nn(Cc2ccc(Cl)c(Cl)c2)c(C)c1NC(=O)c1cc(C2CC2)on1 [5-cyclopropyl-N-[1-(3,4-dichlorobenzyl)-3,5-dimethyl-pyrazol-4-yl]isoxazole-3-carboxamide] | 4.97
51 | O=C(Nc1ccc(Oc2ccccc2)cc1)c1cnc2n(c1=O)CCS2 [5-keto-N-(4-phenoxyphenyl)-2,3-dihydrothiazolo[3,2-a]pyrimidine-6-carboxamide] | 4.78
52 | Cc1ccc(C(=O)Nc2nc(COc3ccccc3)cs2)s1 [5-methyl-N-[4-(phenoxymethyl)-1,3-thiazol-2-yl]thiophene-2-carboxamide] | 4.92
